Source: patent US20140221427A1, “ISOTOPOLOGUES OF POMALIDOMIDE” (CELGENE CORPORATION, priority 2011, published 2014)
Where two headings read alike, the source gives them in different places.

Tests used:
IL-2 = test: Production of IL-2 in anti-CD3-stimulated purified T cells (ELISA); assay type: cell-based, human; details: T cells from PBMC on anti-CD3 (OKT3) coated plates, IL-2 by ELISA, read-out: EC50s for IL-2
Procedure: PBMC are depleted of adherent monocytes by placing 1×10^8 PBMC in 10 ml complete medium (RPMI 1640 supplemented with 10% heat-inactivated fetal bovine serum, 2 mM L-glutamine, 100 U/ml penicillin, and 100 μg/ml streptomycin) per 10 cm tissue culture dish, in 37° C., 5% CO2 incubator for 30-60 minutes. The dish is rinsed with medium to remove all non-adherent PBMC. T cells are purified by negative selection using the following antibody (Pharmingen) and Dynabead (Dynal) mixture for every 1×10^8 non-adherent PBMC: 0.3 ml Sheep anti-mouse IgG beads, 15 μl anti-CD16, 15 μl anti-CD33, 15 μl anti-CD56, 0.23 ml anti-CD19 beads, 0.23 ml anti-HLA class II beads, and 56 μl anti-CD14 beads. The cells and bead/antibody mixture is rotated end-over-end for 30-60 minutes at 4° C. Purified T cells are removed from beads using a Dynal magnet. Typical yield is about 50% T cells, 87-95% CD3′ by flow cytometry.
Tissue culture 96-well flat-bottom plates are coated with anti-CD3 antibody OKT3 at 5 μg/ml in PBS, 100 μl per well, incubated at 37° C. for 3-6 hours, then washed four times with complete medium 100 μl/well just before T cells are added. Compounds are diluted to 20 times of final in a round bottom tissue culture 96-well plate. Final concentrations are about 10 μM to about 0.00064 μM. A 10 mM stock of compounds provided herein is diluted 1:50 in complete for the first 20× dilution of 200 μM in 2% DMSO and serially diluted 1:5 into 2% DMSO. Compound is added at 10 μl per 200 μl culture, to give a final DMSO concentration of 0.1%. Cultures are incubated at 37° C., 5% CO2 for 2-3 days, and supernatants analyzed for IL-2 by ELISA (R&D Systems). […]
In addition, potencies of racemic, (R)-, and (S)-pomalidomide in promoting the production of IL-2 were measured using procedures substantially similar to those described in Section 5.5 above.

TNFα = test: Inhibition of TNFα in LPS-stimulated hPBMC (ELISA); assay type: cell-based; details: LPS-stimulated human PBMC, TNFα by ELISA; read-out: IC50s for TNFα
Procedure: Human peripheral blood mononuclear cells (hPBMC) from normal donors are obtained by Ficoll Hypaque (Pharmacia, Piscataway, N.J., USA) density centrifugation. Cells are cultured in RPMI 1640 (Life Technologies, Grand Island, N.Y., USA) supplemented with 10% AB+human serum (Gemini Bio-products, Woodland, Calif., USA), 2 mM L-glutamine, 100 U/ml penicillin, and 100 μg/ml streptomycin (Life Technologies).
PBMC (2×10^5 cells) are plated in 96-well flat-bottom Costar tissue culture plates (Corning, N.Y., USA) in triplicate. Cells are stimulated with LPS (from Salmonella abortus equi, Sigma cat. no. L-1887, St. Louis, Mo., USA) at 1 ng/ml final in the absence or presence of compounds. Compounds provided herein are dissolved in DMSO (Sigma) and further dilutions are done in culture medium immediately before use. The final DMSO concentration in all assays can be about 0.25%. Compounds are added to cells 1 hour before LPS stimulation. Cells are then incubated for 18-20 hours at 37° C. in 5% CO2, and supernatants are then collected, diluted with culture medium and assayed for TNFα levels by ELISA (Endogen, Boston, Mass., USA). IC50s are calculated using non-linear regression, sigmoidal dose-response, constraining the top to 100% and bottom to 0%, allowing variable slope (GraphPad Prism v3.02).
Potencies of racemic, (R)-, and (S)-pomalidomide in inhibiting TNFα were measured using procedures substantially similar to those described in Section 5.4 above.

Row | EC50 (IL-2) [nM] | IC50 (TNFα) [nM] | EC50 (IL-2; Homo sapiens, T-cell) [nM] | SMILES
1 | 57.2 | 93.3 |  | Nc1cccc2c1C(=O)N([C@@H]1CCC(=O)NC1=O)C2=O [(R)-pomalidomide]
2 | 12.4 | 3.9 |  | Nc1cccc2c1C(=O)N([C@H]1CCC(=O)NC1=O)C2=O [(S)-pomalidomide]
3 |  | 13 | 10.3 | Nc1cccc2c1C(=O)N(C1CCC(=O)NC1=O)C2=O (racemic) [racemic pomalidomide, 4-amino-2-(2,6-dixopiperidin-3-yl)isoindoline-1,3-dione]
